Four molecules from PubChem BioAssay AID1277 (The Scripps Research Institute Molecular Screening Center, 2008) can be followed below.

As usually defined, the IC50 is the concentration at which inhibition is half-maximal.

SMILES strings stand for the structures. The source made the active and inactive calls. The rule behind the calls is not given here. Some results are limits rather than exact numbers.

In the assay the target is Neuropeptide Y receptor type 1 (Homo sapiens) (UniProt P25929). The assay can be described thus: NPY-Y1 receptor antagonist potency, dose response, cell-based (AID 1277). As to conditions: NPY-Y1 expressing cells, antagonist mode.
Sequence of Neuropeptide Y receptor type 1 (Homo sapiens) (P25929 whole entry, looked up): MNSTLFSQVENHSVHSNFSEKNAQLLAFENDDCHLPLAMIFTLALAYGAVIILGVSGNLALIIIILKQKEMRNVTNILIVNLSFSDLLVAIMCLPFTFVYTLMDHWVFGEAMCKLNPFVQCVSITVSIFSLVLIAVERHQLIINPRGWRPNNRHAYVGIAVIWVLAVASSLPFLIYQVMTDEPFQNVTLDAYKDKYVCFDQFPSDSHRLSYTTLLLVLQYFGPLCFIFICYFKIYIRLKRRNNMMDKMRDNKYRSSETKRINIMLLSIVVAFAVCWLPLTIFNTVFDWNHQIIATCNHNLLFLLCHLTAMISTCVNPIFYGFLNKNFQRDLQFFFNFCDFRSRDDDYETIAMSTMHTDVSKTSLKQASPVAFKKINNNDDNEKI
Take `COc1cccc(Oc2cn[nH]c2-c2ccc(O)cc2O)c1`: the IC50 was < 35 µM (inactive).

`Cc1cc(C(=O)CSc2nc3ccccc3c(=O)n2C)c(C)n1CC1CCCO1` (centres undefined): the IC50 is < 35 µM (inactive). On to `CC(C)CC(c1nnnn1C1CCCC1)N1CCN(c2ccccc2F)CC1` (centres undefined), for which the IC50 was < 35 µM (inactive). Take `Cn1ccnc1C1CCCCN1Cc1nc(-c2ccc3c(c2)OCO3)no1` (centres undefined): the IC50 was < 35 µM (inactive).
